Assay results published in US4985445A, “Cancer cell metastasis inhibitors and novel compounds” (Meiji Seika Kaisha, Ltd., priority 1988, dated 1991).
Read-outs that look alike come from different tables or passages of the source.

Tested on: B16 subline of high pulmonary metastatic potential
Details: Table 2, B16 subline, 3 days
Experimental: (§1) The B16 subline of high pulmonary metastatic potential and murine tumor cell line L 929 were cultured in DME medium supplemented with 10% bovine fetal serum at 37° C. in the presence of 5% CO2. Then, cells were detached from the Petri dish with trypsin-EDTA solution. The B16 subline and L 929 were suspended in the medium described above in 1×10^4 cells/ml and 1×10^3 cells/ml, respectively. Each suspension, 150 μl, was added to 50 μl of N-(3-phenylpropyl)-1-deoxynojirimycin solution or Adriamycin (control) solution. Incubation was performed for 3 days for the B16 subline and for 4 days for L 929 strain.
as §1, with “of N-(4-phenoxy-trans-2-butenyl)-1-deoxynojirimycin” for “of N-(3-phenylpropyl)-1-deoxynojirimycin”, “days in” for “days for”, “L 929.” for “L 929 strain.”
as §1, with “of D-glucaro-δ-lactam calcium salt” for “of N-(3-phenylpropyl)-1-deoxynojirimycin”, “(control) solutions.” for “(control) solution.”, “days in” for “days for”, “L 929.” for “L 929 strain.”
The B16 subline of high pulmonary metastatic potential and murine tumor cell line L 929 were cultured in DME medium supplemented with 10% bovine fetal serum at 37° C. in the presence of 5% CO2. Then, cells were detached from the Petri dish with trypsin-EDTA solution. The B16 subline and L 929 were suspended in the medium described above in 1×10^4 cells/ml and 1×10^3 cells/ml, respectively. Each suspension, 150 μl, was added to 50 μl of 2,6-di-O-(1-(p-chlorobenzoyl)-5-methoxy-2-methylindole-3-acetyl)-D-gluco-δ-lactam solution or and Adriamycin (control) solutions. Incubation was performed for 3 days in the B16 subline and for 4 days in L 929.
The B16 subline of high pulmanary metastatic potential and murine tumor cell line L 929 were cultured in DME medium supplemented with 10% bovine fetal serum at 37° C. in the presence of 5% CO2. Then, cells were detached from the Petri dish with trypsin-EDTA solution. The B16 subline and L 929 were suspended in the medium described above in 1×10^4 cells/ml and 1×10^3 cells/ml, respectively. Each suspension, 150 μl, was added to 50 μl of 6-O-triphenylmethyl-D-gluco-δ-lactam solution or Adriamycin (control) solutions. Incubation was performed for 3 days in the B16 sibline and for 4 days in L 929.
The B16 subline of high pulmonary metastatic potential was inoculated into DME medium supplemented with 10% bovine fetal serum and 30 μg/ml of 1-deoxynojirimycin was added thereto followed by incubation at 37° C. for 3 days in the presence of 5% CO2. […] Next, the cells were detached from the Petri dish with trypsin-EDTA solution. The cells were suspended in PBS- in 1×10^6 cells/ml as viable cells. This suspension, 0.1 ml, was intravenously injected in the tail vein of the mouse BDF1 (8 week age, male; 1 group, 3 mice). After feeding for 14 days, the mouse was sacrificed to excise the lungs. The number of colonies of the B16 subline on the surface of and in the lungs was counted.
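Note: + means growth and ± means marked inhibition and - means cell death.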

Structure (SMILES): OC[C@@H]1[C@@H](O)[C@H](O)[C@@H](O)CN1CCCc1ccccc1 [N-(3-Phenylpropyl)-1-deoxynojirimycin, N-(3-phenylpropyl)-1-deoxynojirimycin]
- Growth (30 μg/ml): +
- Growth (100 μg/ml): +
- Growth (300 μg/ml): ±
